Experimental data as given in patent publication US5965701A, “Kappa receptor opioid peptides” (priority 1997, dated 1999).
“And” between values parts separate entries of the source, which are not always exact repeats. Equal entries are not always repeated. Where a SMILES comes first, the peptide text is derived from it. [ ]: non-standard residue; d: D form. The star is where a group is joined. dPhe(3,4-Cl2) = N[C@H](Cc1ccc(Cl)c(Cl)c1)C(=O)O; d2Nal = N[C@H](Cc1ccc2ccccc2c1)C(=O)O; d2Thi = N[C@H](Cc1cccs1)C(=O)O; NH(4-picolyl) = c1cc(CN*)ccn1; N(CH2CH2)2NH = C1CN(*)CCN1; dNle = CCCC[C@@H](N)C(=O)O; Morpholide = C1CN(*)CCO1; NHBn = c1ccc(CN*)cc1; NHPr = CCCN*

Experiments:
[1] = molecular target: T1, cloned human mu opioid (hMOR) receptor (Homo sapiens, UniProt P35372); test: Competition binding at cloned hMOR, displacement of 3H-DAMGO; settings: hMOR stably expressed in HN.9.10 cells, read-out: Ki MOR
T1 construct: expressed in transfected cells; host or cells: HN9.10 (mouse hippocampal neuroblastoma), stably transfected

conscious male ICR mice = test: Mouse acetic acid writhing test (WT); format: in vivo; settings: for WT-ED50: i.v., 5 minutes before acetic acid i.p., writhes over 15 minutes; for % Antinociception 1 hr: 60 min pretreatment; for % Antinociception 2 hr: 120 min pretreatment
Method: Selected peptides that are identified in Tables A-G have been further specifically subjected to in vivo testing for determination of duration of action of their opioid properties, and the results are reported in Table H hereinafter. The peptide numbers correspond to those in the earlier tables and the figures with regard to μ/K ratio are simply carried over for reference purposes. The in vivo testing is carried out using a mouse writhing test (WT) that is well-suited for determining the length of duration of antinociceptive biological activity. This test is described in detail in an article by G. A. Bentley et al., Br. J. Phamac., 73:325-332, 1981, and it employs conscious male ICR mice which are purchased from Harlan and which weigh between 20 and 30 grams. The mice are fasted for 12 to 16 hours prior to beginning the test. The nociceptive behavior, i.e. writhing, to be monitored is induced by the intraperitoneal (i.p.) administration of dilute acetic acid. 10 milliliters of 0.6% aqueous acetic acid is used per kg of body weight. Writhing is scored during the 15 minutes following acetic acid administration. In a first step, compounds are tested at 3 to 4 increasing doses, given by intravenous route, and at one unique pretreatment time (-5 minutes before acetic acid injection). […] In a second step, this submaximal effective dose for each specific peptide is administered at various pretreatment times (i.e. -5 minutes, -60 minutes, -120 minutes and -180 minutes) prior to the administration of the acetic acid in order to determine the duration of action. Throughout the test, a control group of mice are used which are administered only the vehicle without the candidate peptide. The number of writhes are counted over a 15-minute period, starting from the time of acetic acid injection, and bioactivity, i.e. antinociception, is expressed as a percentage, and is calculated as follows:
100×(writhes in control group-writhes in treated group)/writhes in
Values higher than 100% indicate greater antinociception than at the beginning of the experiment. It is felt that the opioid peptide should be effective to reduce writhing by at least about 25% at a time of 1 hour to be considered to have long duration of in vivo action.
In addition to using this test to determine duration of antinociceptive activity, it is also used to measure the in vivo biopotency (short term) of the peptide. This value is given in the table under the heading WT-ED50 in milligrams per kg of body weight. The value is a measure of the dosage necessary to reduce the number of writhes in the mouse being tested by 50% (as compared to a control mouse) over a period of 15 minutes.

[2] = molecular target: T2, cloned human kappa (hKOR) receptor (Homo sapiens, UniProt P41145); test: biochemical; format: binding; settings: for μ/κ Ratio (binding affinity for KOR versus MOR): Ki MOR / Ki KOR; for Ki: read-out: Ki KOR
T2 construct: expressed in transfected cells; host or cells: HN9.10 (mouse hippocampal neuroblastoma), stably transfected

mouse = settings: for TF-ED50: i.v., 52° C. water, central effects; for BPI (Brain Penetration Index): mouse, in vivo, iv
[3] = submaximal effective dose i.v., percentage of the activity found at -5 min

T2 sequence (P41145 whole entry): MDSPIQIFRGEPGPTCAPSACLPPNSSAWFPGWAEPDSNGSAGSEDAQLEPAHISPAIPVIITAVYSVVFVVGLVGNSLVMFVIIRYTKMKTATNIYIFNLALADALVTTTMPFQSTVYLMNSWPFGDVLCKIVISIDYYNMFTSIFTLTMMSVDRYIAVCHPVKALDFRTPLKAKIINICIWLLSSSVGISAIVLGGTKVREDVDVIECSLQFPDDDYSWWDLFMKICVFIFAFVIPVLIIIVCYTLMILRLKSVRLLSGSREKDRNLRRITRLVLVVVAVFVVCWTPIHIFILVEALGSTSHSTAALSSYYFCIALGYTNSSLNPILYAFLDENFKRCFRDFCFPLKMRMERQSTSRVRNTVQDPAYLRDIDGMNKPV
T1 sequence (P35372 whole entry): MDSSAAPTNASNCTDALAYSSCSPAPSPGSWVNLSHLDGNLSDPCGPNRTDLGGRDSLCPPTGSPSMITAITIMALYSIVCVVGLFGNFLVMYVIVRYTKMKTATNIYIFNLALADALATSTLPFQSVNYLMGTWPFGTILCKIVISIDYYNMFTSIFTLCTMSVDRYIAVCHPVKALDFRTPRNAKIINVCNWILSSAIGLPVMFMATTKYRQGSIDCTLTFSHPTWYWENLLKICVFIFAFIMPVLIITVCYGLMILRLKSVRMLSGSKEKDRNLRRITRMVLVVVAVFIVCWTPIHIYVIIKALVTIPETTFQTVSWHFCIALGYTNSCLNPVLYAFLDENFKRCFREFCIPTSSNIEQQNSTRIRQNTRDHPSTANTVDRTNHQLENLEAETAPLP

Compound: CCCC[C@@H](NC(=O)[C@@H](Cc1ccccc1)NC(=O)[C@H](N)Cc1ccccc1)C(=O)N[C@H](CCCNC(=N)N)C(=O)NCC [Peptide 1, H-D-Phe-D-Phe-D-Nle-D-Arg-NHEt] (H-[dF][dF][dNle][dR]-NHEt)
- Ki [1]: 1890 ± 990 nM
- WT-ED50 (conscious male ICR mice): 0.09 mg/kg
- WT-ED50 (conscious male ICR mice; listed as Peptide No. 1): about 0.09 mg/kg
- antinociception after 3 hours (conscious male ICR mice; mouse acetic acid writhing assay, Example 1): over 50%
- duration of antinociceptive bioactivity (duration of action) (conscious male ICR mice; result in words): very long duration of action
- % Antinociception 1 hr (conscious male ICR mice; [3]): 83.9%
- % Antinociception 2 hr (conscious male ICR mice; [3]): 75.5%
- % Antinociception 3 hr (conscious male ICR mice; submaximal effective dose i.v., 180 min pretreatment, percentage of the activity found at -5 min): 61.3%
- μ/κ Ratio (binding affinity for KOR versus MOR) [2]: 38,000
- μ/κ Ratio (binding affinity for KOR versus MOR) ([2]; listed as Peptide No. 1): about 38,000
- Ki [2]: ~0.05 nM
- TF-ED50 (mouse): 9.7 mg/kg
- BPI (Brain Penetration Index) (mouse): 108

Compound: CCCC[C@@H](NC(=O)[C@@H](Cc1ccccc1)NC(=O)[C@H](N)Cc1ccccc1)C(=O)N[C@H](CCCNC(=N)N)C(=O)NCCC [Peptide 3, H-D-Phe-D-Phe-D-Nle-D-Arg-NHPr] (H-[dF][dF][dNle][dR]-NHPr)
- Ki [1]: 1640 nM
- WT-ED50 (conscious male ICR mice): 0.078 mg/kg
- % Antinociception 1 hr (conscious male ICR mice; [3]): 29%
- % Antinociception 2 hr (conscious male ICR mice; [3]): 30.7%
- μ/κ Ratio (binding affinity for KOR versus MOR) [2]: 18,000
- Ki [2]: 0.09 nM
- TF-ED50 (mouse): 13.82 mg/kg
- BPI (Brain Penetration Index) (mouse): 177

Compound: CCCC[C@@H](NC(=O)[C@@H](Cc1ccccc1)NC(=O)[C@H](N)Cc1ccccc1)C(=O)N[C@H](CCCNC(=N)N)C(=O)NCc1ccccc1 [Peptide 14, H-D-Phe-D-Phe-D-Nle-D-Arg-NHBzl] (H-[dF][dF][dNle][dR]-NHBn)
- Ki [1]: 890 nM
- WT-ED50 (conscious male ICR mice): 0.14 mg/kg
- % Antinociception 1 hr (conscious male ICR mice; [3]): 36%
- μ/κ Ratio (binding affinity for KOR versus MOR) [2]: 2,000
- Ki [2]: 0.44 nM

Compound: CCCC[C@@H](NC(=O)[C@@H](Cc1ccccc1)NC(=O)[C@H](N)Cc1ccccc1)C(=O)N[C@H](CCCNC(=N)N)C(=O)N1CCNCC1 [Peptide 15, H-D-Phe-D-Phe-D-Nle-D-Arg-Ppz] (H-[dF][dF][dNle][dR]-{N(CH2CH2)2NH})
- Ki [1]: 9100 nM
- WT-ED50 (conscious male ICR mice): 0.017 mg/kg
- μ/κ Ratio (binding affinity for KOR versus MOR) [2]: 57,000
- Ki [2]: 0.16 nM

Compound: CCNC(=O)[C@@H](CCCN)NC(=O)[C@@H](CC(C)C)NC(=O)[C@@H](Cc1ccccc1)NC(=O)[C@H](N)Cc1ccccc1 [Peptide 56, H-D-Phe-D-Phe-D-Leu-D-Orn-NHEt]
- Ki [1]: 4150 nM
- WT-ED50 (conscious male ICR mice): 0.057 mg/kg and 0.06 mg/kg
- % Antinociception 1 hr (conscious male ICR mice; [3]): 76.3%
- % Antinociception 2 hr (conscious male ICR mice; [3]): 60.2%
- μ/κ Ratio (binding affinity for KOR versus MOR) [2]: 13,000
- Ki [2]: 0.31 nM

Compound: CCCC[C@@H](NC(=O)[C@@H](Cc1ccccc1)NC(=O)[C@H](N)Cc1ccccc1)C(=O)N[C@H](Cc1ccc(CNC(=N)N)cc1)C(=O)N1CCOCC1 [Peptide 58, H-D-Phe-D-Phe-D-Nle-D-Gmf-Mor]
- Ki [1]: 3010 nM
- WT-ED50 (conscious male ICR mice): 0.040 mg/kg
- μ/κ Ratio (binding affinity for KOR versus MOR) [2]: 6,500
- Ki [2]: 0.46 nM

Compound: CC(C)C[C@@H](NC(=O)[C@@H](Cc1ccc(Cl)c(Cl)c1)NC(=O)[C@H](N)Cc1cccs1)C(=O)N[C@H](CCCNC(=N)N)C(=O)NCc1ccncc1 [Peptide 60, H-D-Ala(2Thi)-D-3,4Cpa-D-Leu-D-Arg-NH(4Pic)] (H-[d2Thi][dPhe(3,4-Cl2)][dL][dR]-{NH(4-picolyl)})
- Ki [1]: 769 nM
- WT-ED50 (conscious male ICR mice): 0.083 mg/kg
- % Antinociception 1 hr (conscious male ICR mice; [3]): 83.8%
- % Antinociception 2 hr (conscious male ICR mice; [3]): 35.5%
- μ/κ Ratio (binding affinity for KOR versus MOR) [2]: 1,900
- Ki [2]: 0.4 nM

Compound: CC(C)C[C@@H](NC(=O)[C@@H](Cc1ccc2ccccc2c1)NC(=O)[C@H](N)Cc1cccs1)C(=O)N[C@H](CCCNC(=N)N)C(=O)N1CCOCC1 [Peptide 63, H-D-Ala(2Thi)-D-2Nal-D-Leu-D-Arg-Mor] (H-[d2Thi][d2Nal][dL][dR]-Morpholide)
- Ki [1]: 3170 nM
- WT-ED50 (conscious male ICR mice): 0.04 mg/kg
- % Antinociception 1 hr (conscious male ICR mice; [3]): 51.8%
- % Antinociception 2 hr (conscious male ICR mice; [3]): 36.1%
- μ/κ Ratio (binding affinity for KOR versus MOR) [2]: 16,000
- Ki [2]: 0.2 nM
